Source: patent US20080045537A1, “Chemical Compounds” (priority 2004, published 2008)
Like-named read-outs stand apart in the source and are kept apart here.

Assays:
Format in all cases: cell-based
[1] = test system: HIV-1 IIIB (T-tropic, CXCR4 utilizing); assay: HOS HIV-1 infectivity assay
Outline: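 HOS cells expressing hCXCR4/hCCR5/hCD4 and an HIV-LTR-luciferase reporter, in DMEM with 2% FCS, were pre-treated with compound for 1 h, then infected with HIV-1 IIIB (~2 million RLU/well) for 96 h at 37° C. Infection was read by Steady-Glo luciferase; cytotoxicity in uninfected cultures by CellTiter-Glo.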

[2] = test system: HIV-1 gp160 (from the HXB2 HIV strain); assay: Cell/cell fusion assay (HEK-293 expressing HIV-1 tat, rev, gp160 with HOS hCXCR4/hCCR5/hCD4/pHIV-LTR-luciferase cells); conditions: Human immunodeficiency virus 1, HXB2, HEK293, 24 h, read-out: Fusion assay (pIC50), luciferase readout after 24 h (converted)
Description: The complete coding sequences of HIV-1 tat (GenBank Accession No. X07861) and rev (GenBank Accession No. M34378) were cloned into pcDNA3.1 expression vectors containing G418 and hygromycin resistance genes, respectively. The complete coding sequence of the HIV-1 (HXB2 strain) gp160 envelope gene (nucleotide bases 6225-8795 of GenBank Accession No. K03455) was cloned into plasmid pCRII-TOPO. The three HIV genes were additionally inserted into the baculovirus shuttle vector, pFastBacMam1, under the transcriptional control of the CMV promoter. A construction of the pHIV-I LTR containing mutated NFkB sequences linked to the luciferase reporter gene was prepared by digesting pcDNA3.1, containing the G418 resistance gene, with Nru I and Bam HI to remove the CMV promoter. LTR-luc was then cloned into the Nru I/Bam HI sites of the plasmid vector. Plasmid preparations were performed after the plasmids were amplified in Escherichia coli strain DH5-alpha. The fidelity of the inserted sequences was confirmed by double-strand nucleotide sequencing using an ABI Prism Model 377 automated sequencer.
Recombinant BacMam baculoviruses were constructed from pFastBacMam shuttle plasmids by using the bacterial cell-based Bac-to-Bac system. Viruses were propagated in Sf9 (Spodoptera frugiperda) cells cultured in Hink's TNM-FH Insect media supplemented with 10% (v/v) fetal bovine serum and 0.1% (v/v) pluronic F-68 according to established protocols.
Human osteosarcoma (HOS) cells that naturally express human CXCR4 were transfected with human CCR5, human CD4 and the pHIV-LTR-luciferase plasmid using FuGENE 6 transfection reagent. Single cells were isolated and grown under selection condition in order to generate a stable HOS (hCXCR4/hCCR5/hCD4/pHIV-LTR-luciferase) clonal cell line. The cells were maintained in Dulbeccos modified Eagles media supplemented with 10% fetal calf serum (FCS), G418 (400 ug/ml), puromycin (1 ug/ml), mycophenolic acid (40 ug/ml), xanthine (250 ug/ml) and hypoxanthine (13.5 ug/ml) to maintain a selection pressure for cells expressing the LTR-luciferase, hCCR5 and hCD4, respectively. Human embryonic kidney (HEK-293) cells stably transfected to express the human macrophage scavenging receptor (Class A, type 1; GenBank Accession No. D90187), were maintained in DMEM/F-12 media (1:1) supplemented with 10% FCS and 1.5 ug/ml puromycin. The expression of this receptor by the HEK-293 cells enhances their ability to stick to tissue culture treated plasticware.
HEK-293 cells were harvested using enzyme-free cell dissociation buffer. The cells were resuspended in DMEM/F-12 media supplemented with 10% FCS and 1.5 ug/ml and counted. Tranductions were performed by direct addition of BacMam baculovirus containing insect cell media to cells. The cells were simultaneously transduced with BacMam baculovirus expressing HIV-1 tat, HIV-1 rev and HIV-1 gp160 (from the HXB2 HIV strain). Routinely an MOI of 10 of each virus was added to the media containing the cells. 2 mM butyric acid was also added to the cells at this stage to increase protein expression in transduced cells. The cells were subsequently mixed and seeded into a flask at 30 million cells per T225. The cells were incubated at 37° C., 5% CO2, 95% humidity for 24 h to allow for protein expression.
HEK and HOS cells were harvested in DMEM/F-12 media containing 2% FCS and DMEM media containing 2% FCS, respectively, with no selection agents added. Compounds were plated as 1 ul spots in 100% DMSO on a 96-well CulturPlate plates. HOS cells (50 ul) were added first to the wells, followed immediately by the HEK cells (50 ul). The final concentration of each cell type was 20,000 cells per well. Following these additions, the cells were returned to a tissue culture incubator (37° C.; 5% CO2/95% air) for an additional 24 h.
Following the 24 h incubation, total cellular luciferase activity was measured using the LucLite Plus assay kit (Packard, Meridien, Conn.). […]

human CXCR4 = target: T1, human CXCR4 (Homo sapiens, UniProt P61073); assay: Functional FLIPR assay (block of SDF-1 alpha induced [Ca2+]i change); conditions: HEK-293 cells with human CXCR4 BacMam and Gqi5 BacMam; antagonism of SDF-1 alpha; read-out: Functional assay (pIC50) (converted)
T1 construct: expressed in transfected cells; host or cells: HEK-293 cells (stably expressing human macrophage scavenging receptor) transduced with human CXCR4 BacMam and Gqi5 BacMam baculoviruses
Protocol: Human embryonic kidney (HEK-293) cells were maintained and harvested as described above. Cells were plated in 96-well, black clear bottom, poly-lysine coated plates at a concentration of 40,000 cells per well in a final volume of 100 ul containing human CXCR4BacMam (MOI=25) and Gqi5 BacMam (MOI=12.5). The cells were incubated at 37° C., 5% CO2, 95% humidity for 24 h to allow for protein expression.
After the required incubation time the cells were washed once with 50 ul of fresh serum-free DMEM/F12 media containing probenicid. 50 ul of dye solution was then added to the cells (Calcium Plus Assay Kit Dye; Molecular Devices) was dissolved in 200 ml of the above probenicid/BSA containing media and incubated for 1 h. Cell plates were transferred to a Fluorometric Imaging Plate Reader (FLIPR). Upon addition the effect of the compounds on the change in [Ca^2+]i was examined to determine if the compounds were agonists or antagonists (ability to block SDF-1 alpha activity) at the CXCR4 receptor. IC50 values are determined and pKb values are calculated using the Leff and Dougall equation: KB=IC50/((2+([agonist]/EC50ˆb)ˆ1/b−1) Where IC50 is that defined by the antagonist concentration-response curve [agonist] is the EC80 concentration of agonist used EC50 is that defined by the agonist concentration-response curve b is the slope of the agonist concentration-response curve.

[3] = Compound cytotoxicity in the absence of virus addition (CellTiter-Glo); conditions: human; non-infected HOS cultures; read-out: Cytotox (pIC50) (converted)
Protocol: Compounds were profiled against two HIV-1 viruses, the M-tropic (CCR5 utilizing) Ba-L strain and the T-tropic (CXCR4 utilizing) IIIB strain. Both viruses were propagated in human peripheral blood lymphocytes. Compounds were tested for there ability to block infection of the HOS cell line (expressing hCXCR4/hCCR5/hCD4/pHIV-LTR-luciferase) by either HIV-1 Ba-L or HIV-1 IIIB. Compound cytotoxicity was also examined in the absence of virus addition.
HOS cells (expressing hCXCR4/hCCR5/hCD4/pHIV-LTR-luciferase) were harvested and diluted in Dulbeccos modified Eagles media supplemented with 2% FCS and non-essential amino acid to a concentration of 60,000 cells/ml. The cells were plated into 96-well plates (100 ul per well) and the plates were placed in a tissue culture incubator (37° C.; 5% CO2/95% air) for a period of 24 h.
Subsequently, 50 ul of the desired drug solution (4 times the final concentration) was added to each well and the plates were returned to the tissue culture incubator (37° C.; 5% CO2/95% air) for 1 h. Following this incubation 50 ul of diluted virus was added to each well (approximately 2 million RLU per well of virus). The plates were returned to the tissue culture incubator (37° C.; 5% CO2/95% air) and were incubated for a further 96 h.
Following this incubation the endpoint for the virally infected cultures was quantified following addition of Steady-Glo Luciferase assay system reagent (Promega, Madison, Wis.). Cell viability or non-infected cultures was measured using a CellTiter-Glo luminescent cell viability assay system (Promega, Madison, Wis.). All luminescent readouts are performed on a Topcount luminescence detector (Packard, Meridien, Conn.).

[4] = Human immunodeficiency virus 1, IIIB, as determined by the infectivity assay, strain not stated in Table 2, read-out: Activity Level
[5] = Human immunodeficiency virus 1, HIV-1 IIIB, HOS cells, 96 h, luciferase readout, read-out: HOS (3B)
[6] = as determined by the infectivity assay, strain not stated in Table 2, read-out: Activity Level

T1 sequence (P61073 whole entry): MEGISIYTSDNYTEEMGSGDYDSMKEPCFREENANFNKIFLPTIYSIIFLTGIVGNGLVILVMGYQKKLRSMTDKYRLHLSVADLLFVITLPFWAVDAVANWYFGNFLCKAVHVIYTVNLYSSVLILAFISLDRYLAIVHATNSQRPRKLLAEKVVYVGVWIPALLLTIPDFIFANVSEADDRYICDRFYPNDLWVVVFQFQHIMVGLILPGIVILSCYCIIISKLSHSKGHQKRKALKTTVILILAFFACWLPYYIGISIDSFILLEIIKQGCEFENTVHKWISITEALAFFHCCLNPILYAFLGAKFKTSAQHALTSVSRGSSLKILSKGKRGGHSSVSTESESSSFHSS

Row | Structure (SMILES) | IC50 [1, 4] | IC50 [1, 5] | IC50 [2] | IC50 (human CXCR4) | IC50 at 96 h [3] | IC50 [1, 6]
1 | CN(Cc1nc2cc(C(=O)NCc3ccc(CN)cc3)ccc2[nH]1)C1CCCc2cccnc21 (stereo not shown) [Example 20, N-{[4-(Aminomethyl)phenyl]methyl}-2-{[methyl(5,6,7,8-tetrahydro-8-quinolinyl)amino]methyl}-1H-benzimidazole-5-carboxamide] | 0.5 to 10 µM | 2.35 µM | 5.62 µM | > 100 µM | > 100 µM | –
2 | CN(Cc1nc2cccc(C(=O)N3CCNCC3)c2[nH]1)C1CCCc2cccnc21 (stereo not shown) [Example 21, N-Methyl-N-{[4-(1-piperazinylcarbonyl)-1H-benzimidazol-2-yl]methyl}-5,6,7,8-tetrahydro-8-quinolinamine] | < 0.1 µM | 0.046 µM | 0.0603 µM | 0.0158 µM | > 100 µM | –
3 | CN1CCN(C(=O)c2cccc3[nH]c(CN(C)C4CCCc5cccnc54)nc23)CC1 (stereo not shown) [Example 22, N-Methyl-N-({4-[(4-methyl-1-piperazinyl)carbonyl]-1H-benzimidazol-2-yl}methyl)-5,6,7,8-tetrahydro-8-quinolinamine] | 0.1 to 0.5 µM | 0.331 µM | 1.05 µM | 0.17 µM | > 100 µM | –
4 | CN(Cc1nc2cccc(C(=O)NCCc3cnc[nH]3)c2[nH]1)C1CCCc2cccnc21 (stereo not shown) [Example 23, N-[2-(1H-Imidazol-4-yl)ethyl]-2-{[methyl(5,6,7,8-tetrahydro-8-quinolinyl)amino]methyl}-1H-benzimidazole-4-carboxamide] | < 0.1 µM | 0.018 µM | 0.158 µM | 0.0135 µM | > 100 µM | –
5 | CN(Cc1nc2c(C(=O)NCCc3cn(C)cn3)cccc2[nH]1)C1CCCc2cccnc21 (stereo not shown) [Example 24, N-[2-(1-Methyl-1H-imidazol-4-yl)ethyl]-2-{[methyl(5,6,7,8-tetrahydro-8-quinolinyl)amino]methyl}-1H-benzimidazole-4-carboxamide] | < 0.1 µM | 0.022 µM | 0.145 µM | 0.0123 µM | > 100 µM | –
6 | CN(Cc1nc2c(C(N)=O)cccc2[nH]1)C1CCCc2cccnc21 (stereo not shown) [Example 25, 2-{[Methyl(5,6,7,8-tetrahydro-8-quinolinyl)amino]methyl}-1H-benzimidazole-4-carboxamide] | 0.1 to 0.5 µM | 0.143 µM | 0.275 µM | 0.174 µM | > 100 µM | –
7 | CN(Cc1nc2c(C(=O)NCCN)cccc2[nH]1)C1CCCc2cccnc21 (stereo not shown) [Example 26, N-(2-Aminoethyl)-2-{[methyl(5,6,7,8-tetrahydro-8-quinolinyl)amino]methyl}-1H-benzimidazole-4-carboxamide] | < 0.1 µM | 0.027 µM | 0.049 µM | 0.0209 µM | > 100 µM | –
8 | CN(Cc1nc2c(C(=O)NCCCN3CCCC3)cccc2[nH]1)C1CCCc2cccnc21 (stereo not shown) [Example 28, 2-{[Methyl(5,6,7,8-tetrahydro-8-quinolinyl)amino]methyl}-N-[3-(1-pyrrolidinyl)propyl]-1H-benzimidazole-4-carboxamide] | < 0.1 µM | 0.044 µM | 0.148 µM | 0.0575 µM | > 100 µM | –
9 | CN(C)CCCNC(=O)c1cccc2[nH]c(CN(C)C3CCCc4cccnc43)nc12 (stereo not shown) [Example 29, N-[3-(Dimethylamino)propyl]-2-{[methyl(5,6,7,8-tetrahydro-8-quinolinyl)amino]methyl}-1H-benzimidazole-4-carboxamide] | < 0.1 µM | 0.081 µM | 0.257 µM | 0.132 µM | > 100 µM | –
10 | CN(Cc1nc2c(C(=O)N3CCC(N)CC3)cccc2[nH]1)C1CCCc2cccnc21 (stereo not shown) [Example 30, N-({4-[(4-Amino-1-piperidinyl)carbonyl]-1H-benzimidazol-2-yl}methyl)-N-methyl-5,6,7,8-tetrahydro-8-quinolinamine] | – | 0.075 µM | 0.407 µM | 2 µM | > 100 µM | < 0.1 µM
11 | CN(Cc1nc2c(C(=O)N3CCC(N)C3)cccc2[nH]1)C1CCCc2cccnc21 (stereo not shown) [Example 31, N-({4-[(3-Amino-1-pyrrolidinyl)carbonyl]-1H-benzimidazol-2-yl}methyl)-N-methyl-5,6,7,8-tetrahydro-8-quinolinamine] | – | 0.022 µM | 0.049 µM | 0.0123 µM | > 100 µM | < 0.1 µM
